# Source: US20240269308A1, “PRODRUGS OF TOPOISOMERASE I INHIBITOR FOR ADC CONJUGATIONS AND METHODS OF USE THEREOF” (priority 2022, published 2024)
# Columns and labels:
# SK-BR-3 cells = experiment: SKBR3 cell-based anti-proliferation / viability assay (CellTiter-Glo); parameters: species or system human; settings: read-out: SKBR3 EC50
# Experimental: The anti-Her2 viability assay protocol is following.
# 0.1% BSA was added to the Opti-MEM reduced serum media [Gibco, cat #31985-070]. This assay media was used for the dilution of ADC and free drug.
# Cells were seeded in their growth media into 96 well plates (Thermo #136101) one day prior to adding ADCs: 1000/well SKBR3 cells in 80 uL media (target positive cells), 1000/well NCI-N87 cells in 80 uL media (target positive cells), 1000/well Calu-3 in 80 uL media (target positive cells), and 800/well NCI-H1975 cells in 80ul media (target negative cells).
# Serial dilutions of free drug in 100% DMSO (1:4 10 pts starting from 100 uM) were prepared. Serially diluted payload was transferred into Opti-Mem with 0.1% BSA (10 uL into 990 uL media). Serial dilutions of ADCs/isotype controls at 1:4 in Opti-Mem with 0.1% BSA (starting from 5×1000 nM) were prepared. 20ul assay media diluted ADC/isotype conjugates as well as free drug were transferred to above cells. The plates were incubated at 37° C., 5% CO2 for 6 days. Plates were developed by adding 100ul CellTiter Glo 2.0. RT 5-10 min. Plates were read with Envision plate reader. Data was analyzed using Prism. Only inner 60 well are used for the assay. The edge wells were filled with media to prevent dry out.
# The cell line used in the anti-proliferation assays was SK-BR-3, a human breast, adenocarcinoma (pleural effusion) cell line; The cells were grown in McCoy's 5a Medium+10% FBS. To run the assay, the cells (80 μl, 1000 cells) were added to each well in a 96-well plate and incubated for 24 hours at 37° C. with CO2. Next, the cells were treated with test compounds (20 μl) at various concentrations in appropriate cell culture medium (total volume, 0.1 mL). The control wells contain cells and the medium but lack the test compounds. The plates were incubated for 144 hours at 37° C. with CO2. CTG reagent was then added to the wells (100 μl). After the plates were shaken for 10 min and then incubated for 10 min at room temperature, paste the clear bottom with white back seal and record luminescence with Envision. The inhibition % was calculated according to the following equation: inhibition %=[1-(assay-blank)/(control-blank)]×100.
# HCT-15 = HCT-15 cell killing EC50 (−v / +v); assay type: cell-based
# [1] = Mouse whole blood stability test; assay type: in vitro ADME
# Experimental: In vitro stability of Linker-Prodrug in mouse whole blood Scheme 15. Metabolism of LP1 (M2980) in whole blood.
# Stock solution of test compound was provided in 100% DMSO. The stock solution for each compound was diluted into 500 μM with mixture of 50% acetonitrile, then diluted into mouse blood to achieve a final concentration of 1.0 μM. 1.0 μM of test compound in duplicate was incubated in blood at 37° C. Aliquots of 50 uL sample was collected at 0, 15, 30, 60, 120, 240, 480 min, and 24 hours. Reactions were terminated at various time points (0, 15, 30, 60, 120, 240, 480 min, 24 hours) by adding 200 μL of ice-cold acetonitrile containing internal standard with 1% formic acid and then ultrasound for 30 seconds. Plate was centrifuged (4000 rpm, 15 min). 50 μL of supernatants were transferred into a daughter plate containing 200 μL of H2O in each well. The samples were mixed well and analyzed with UPLC-MS/MS.
# A Waters liquid chromatographic system was used. Detection was performed on AP14000 Q-Trap and AP15500 mass spectrometer equipped with TurbolonSpray (ESI) Interface (Applied Biosystems, Concord, Ontario, Canada). Analyst 1.5 and 1.6.2 software packages (Applied Biosystems) were used to control the LC-MS/MS system, as well as for data acquisition and processing.
# Chromatographic separation was achieved on the Wates BEH C18 column (50*2.1 mm ID, 1.7 μm). The column temperature was maintained at ambient temperature (25° C.). The flow rate was maintained at 0.6 mL/min and the following mobile phases were used: water (0.1% formic acid, v/v) (phase A) and acetonitrile (0.1% formic acid, v/v) (phase B).
# Test compounds (1.0 μM) were incubated in blood at 37° C. in duplicate. Aliquots of 50 uL sample was collected at 0, 15, 30, 60, 120, 240, 480 min, and 24 hours. Reactions were terminated at various time points (0, 15, 30, 60, 120, 240, 480 min, 24 hours by adding 200 μL of ice-cold acetonitrile containing internal standard with 1% formic acid, then ultrasound for 30 seconds. The plate was centrifuged (4000 rpm, 15 min). 50 μL of supernatants were transferred into a daughter plate containing 200 μL of water in each well. Samples were mixed well and analyzed with UPLC-MS/MS.
# The % was calculated based on initial 1 uM as 100% and the standard concentration curve.
# [2] = Special liability / stability (Certificate of Analysis of LP1, physical and chemical properties); assay type: physicochemical; settings: LP1 13g lot, free base
# [3] = Solubility (Certificate of Analysis of LP1, physical and chemical properties); assay type: physicochemical; settings: LP1 13g lot, free base
# [4] = M3385 metabolism in human liver S9 with NADPH and UDPGA; assay type: in vitro ADME; settings: 240 min; for Relative UV Abundance* (%): M3385 incubated in human liver S9 with NADPH and UDPGA, single peak (parent or metabolite)
# Excerpt: (§1) Briefly, hepatocytes are complete liver cells, containing various first-phase and second-phase enzymes that can mediate various metabolic reactions; therefore, it is a better in vitro model to test metabolites. Liver S9 is the supernatant obtained by grinding and centrifuging the liver cells. The enzymes content is lower compared to Hepatocytes. It mainly contains CYP enzymes and some biphasic enzymes (but no biphasic coenzyme), so additional coenzyme (NADPH and UDPGA, etc.) is needed to mediate the biphasic reaction.
# The metabolism of model compound M3385 was evaluated in human liver S9 with NADPH and UDPGA as follows:
# (§2) Assay buffer: 100 mM potassium phosphate buffer (K+/Mg2+ buffer, pH7.4):
# (§3) The initial stock of liver S9 was diluted in K+/Mg^2+ buffer, pH 7.4 from 20 mg/ml to 2× Liver S9 (2 mg/mL) with alamethicin (50 μg/mL):
# (§4) 2×LS9/compound M3385 solution was prepared.
# (§5) Time zero/T0: 199 μL 2 mg/mL liver S9 solution; 100 μL of 8 mM NADPH solution; 100 μL of 20 mM UDPGA solution; and 1200 μL of ACN were added, vortexed at 1000 rpm for 5 min, then 1 μL of 4 mM test compound solution was added.
# T240 with a co-factor: 199 μL 2 mg/mL liver S9 solution; 100 μL of 8 mM NADPH solution; and 100 μL of 20 mM UDPGA solution were added. The T240 sample was prewarmed at 37° C. for 5 min and 1 μL of 4 mM test compound solution was added. After 240 min incubation, 1200 μL of ACN was added and then vortexed at 1000 rpm for 5 min.
# (§6) Protein precipitation: quenched samples were centrifuged at 14000 rpm for 5 min.
# (§7) Sample preparation: an aliquot of 1200 μL of the supernatant was evaporated under N2 stream until dry. Dried extracts were reconstituted with 200 μL of 25% aqueous ACN, vortexed for 2 minutes, centrifuged at 14000 rpm for 5 min, and then 3 μL of reconstituted supernatant were injected for LC-UV-MS analysis.
# [5] = M3385 metabolism in human liver S9 without cofactors NADPH and UDPGA; assay type: in vitro ADME; settings: 240 min; for Relative UV Abundance* (%): M3385 incubated in human liver S9 without NADPH and UDPGA, single peak (parent or metabolite)
# Excerpt: as §1, §2, §3, §4, §5
# T240-without a co-factor: 199 μL 2 mg/mL liver S9 solution and 200 μL of buffer were added. The T240-w/o sample was prewarmed at 37° C. for 5 min and 1 μL of 4 mM test compound solution was added. After 240 min incubation, 1200 μL of ACN was added and then vortexed at 1000 rpm for 5 min.
# as §6, §7
# BCRP = molecular target: T1, BCRP (Homo sapiens, UniProt Q9UNQ0); settings: not told
# T1 sequence (Q9UNQ0 1-655): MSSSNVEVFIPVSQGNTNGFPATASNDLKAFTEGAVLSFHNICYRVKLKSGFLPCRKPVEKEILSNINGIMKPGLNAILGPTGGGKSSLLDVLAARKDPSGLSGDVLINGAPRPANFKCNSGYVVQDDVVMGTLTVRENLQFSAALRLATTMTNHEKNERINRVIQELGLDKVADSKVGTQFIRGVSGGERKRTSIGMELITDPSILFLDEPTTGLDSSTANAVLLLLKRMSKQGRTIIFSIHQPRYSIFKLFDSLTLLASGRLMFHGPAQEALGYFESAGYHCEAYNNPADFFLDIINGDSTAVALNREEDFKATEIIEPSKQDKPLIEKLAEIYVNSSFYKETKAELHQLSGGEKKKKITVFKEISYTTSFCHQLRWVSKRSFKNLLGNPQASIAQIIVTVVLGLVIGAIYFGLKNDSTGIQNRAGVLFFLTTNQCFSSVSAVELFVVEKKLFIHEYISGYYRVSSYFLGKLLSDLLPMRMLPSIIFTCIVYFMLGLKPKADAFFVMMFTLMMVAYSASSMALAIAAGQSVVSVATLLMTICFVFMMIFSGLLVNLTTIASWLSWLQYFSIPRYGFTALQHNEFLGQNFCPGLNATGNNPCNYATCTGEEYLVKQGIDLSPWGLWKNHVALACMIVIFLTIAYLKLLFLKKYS
# pGP = pGP (Homo sapiens, UniProt P08183); settings: not told
# Chain of pGP (P08183 whole entry): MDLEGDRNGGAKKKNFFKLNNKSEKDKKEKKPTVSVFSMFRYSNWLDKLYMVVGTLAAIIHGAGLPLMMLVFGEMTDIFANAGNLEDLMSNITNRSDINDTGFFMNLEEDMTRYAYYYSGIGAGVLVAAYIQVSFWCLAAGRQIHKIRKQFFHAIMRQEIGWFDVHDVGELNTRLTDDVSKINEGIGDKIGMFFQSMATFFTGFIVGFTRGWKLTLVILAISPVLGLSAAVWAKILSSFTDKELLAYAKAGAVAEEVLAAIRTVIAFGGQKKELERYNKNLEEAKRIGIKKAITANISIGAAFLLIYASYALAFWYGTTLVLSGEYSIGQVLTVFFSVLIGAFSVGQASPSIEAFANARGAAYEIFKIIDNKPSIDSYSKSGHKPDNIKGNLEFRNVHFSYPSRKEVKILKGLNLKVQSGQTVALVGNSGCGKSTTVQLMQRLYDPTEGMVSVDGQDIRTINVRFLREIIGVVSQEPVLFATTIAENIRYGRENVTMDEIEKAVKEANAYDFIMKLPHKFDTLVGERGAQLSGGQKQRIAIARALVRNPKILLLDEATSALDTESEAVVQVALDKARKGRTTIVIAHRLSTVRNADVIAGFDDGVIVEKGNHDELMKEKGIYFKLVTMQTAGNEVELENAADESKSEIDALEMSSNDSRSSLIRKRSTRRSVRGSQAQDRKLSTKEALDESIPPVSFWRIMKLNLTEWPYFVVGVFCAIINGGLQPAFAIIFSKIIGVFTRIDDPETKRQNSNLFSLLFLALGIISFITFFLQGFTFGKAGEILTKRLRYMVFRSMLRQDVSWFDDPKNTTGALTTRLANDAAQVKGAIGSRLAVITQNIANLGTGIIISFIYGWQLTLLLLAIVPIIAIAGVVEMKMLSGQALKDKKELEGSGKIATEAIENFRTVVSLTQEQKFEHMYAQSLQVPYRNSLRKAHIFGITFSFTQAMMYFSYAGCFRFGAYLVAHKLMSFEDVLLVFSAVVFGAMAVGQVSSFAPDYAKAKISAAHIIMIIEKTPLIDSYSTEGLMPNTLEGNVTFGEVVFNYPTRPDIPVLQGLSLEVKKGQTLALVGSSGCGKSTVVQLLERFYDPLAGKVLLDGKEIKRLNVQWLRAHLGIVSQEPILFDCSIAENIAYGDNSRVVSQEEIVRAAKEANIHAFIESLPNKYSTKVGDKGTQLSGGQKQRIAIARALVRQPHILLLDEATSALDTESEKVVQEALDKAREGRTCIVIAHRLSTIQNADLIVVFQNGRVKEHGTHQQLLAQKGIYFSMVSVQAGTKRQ
compound,measurement,setting,value
"CC[C@@]1(O)C(=O)OCc2c1cc1n(c2=O)Cc2c-1nc1cc(F)c(C)c3c1c2[C@@H](N)CC3 [EXT, reference compound]",EC50,SK-BR-3 cells,0.52 nM
same,EC50,HCT-15; +v,1.13 nM
same,EC50,HCT-15; −v,1.22 nM
"CC[C@@]1(O)C(=O)OCc2c1cc1n(c2=O)Cc2c-1nc1cc(F)c(C)c3c1c2[C@@H](NC(=O)COCNC(=O)CNC(=O)OCc1ccc(NC(=O)[C@H](CCCNC(N)=O)NC(=O)[C@@H](NC(=O)CCOCCOCCOCCOCCNC(=O)COC2C#CCCCCC2)C(C)C)cc1)CC3 (stereo partly drawn) [LP1, {4-[(2S)-5-(carbamoylamino)-2-[(2S)-2-{1-[2-(cyclooct-2-yn-1-yloxy)acetamido]-3,6,9,12-tetraoxapentadecan-15-amido}-3-methylbutanamido]pentanamido]phenyl}methyl N-({[({[(10S,23S)-10-ethyl-18-fluoro-10-hydroxy-19-methyl-5,9-dioxo-8-oxa-4,15-diazahexacyclo[14.7.1.0^2,14.0^4,13.0^6,11.0^20,24]tetracosa-1,6(11),12,14,16,18,20(24)-heptaen-23-yl]carbamoyl}methoxy)methyl]carbamoyl}methyl)carbamate]",% of test compound in whole blood (initial 1 uM as 100%),"[1]; mouse blood, 37° C., 1.0 μM, 0 hr",100.0%
same,% of test compound in whole blood (initial 1 uM as 100%),"[1]; mouse blood, 37° C., 1.0 μM, 0.25 hr",88.8%
same,% of test compound in whole blood (initial 1 uM as 100%),"[1]; mouse blood, 37° C., 1.0 μM, 0.5 hr",82.6%
same,% of test compound in whole blood (initial 1 uM as 100%),"[1]; mouse blood, 37° C., 1.0 μM, 1 hr",72.3%
same,% of test compound in whole blood (initial 1 uM as 100%),"[1]; mouse blood, 37° C., 1.0 μM, 2 hr",52.8%
same,% of test compound in whole blood (initial 1 uM as 100%),"[1]; mouse blood, 37° C., 1.0 μM, 4 hr",30.5%
same,% of test compound in whole blood (initial 1 uM as 100%),"[1]; mouse blood, 37° C., 1.0 μM, 8 hr",16.5%
same,% of test compound in whole blood (initial 1 uM as 100%),"[1]; mouse blood, 37° C., 1.0 μM, 24 hr",0.0%
same,Metabolism in whole blood,"[1]; mouse whole blood, 37° C.","metabolized to ProDXD, and then to DXd"
same,Special liability (light),[2],Light sensitive
same,Special liability (pH stability),[2],unstable at pH <3 or pH >11
same,solubility,[3]; in water,0.026 mM
same,solubility,"[3]; organic solvent or mixture, in DMSO",10 mM
CC[C@@](O)(C(=O)O)c1cc2n(c(=O)c1CO)Cc1c-2nc2cc(F)c(C)c3c2c1[C@@H](NC(=O)COCNC(=O)CN)CC3 [MP1R],Relative UV Abundance* (%),[4],0.29%
same,Relative UV Abundance* (%),[5],0.38%
CC[C@@]1(O)C(=O)OCc2c1cc1n(c2=O)Cc2c-1nc1cc(F)c(C)c3c1c2[C@@H](NC(=O)COCNC(=O)CN)CC3 [MP1],"Relative UV Abundance* (%), group total","[5]; human, 10 μM, pH 7.4",4.93%
CC[C@@](O)(C(=O)O)c1cc2n(c(=O)c1CO)Cc1c-2nc2cc(F)c(C)c3c2c1[C@@H](NC(=O)CO)CC3 [MP2R],Relative UV Abundance* (%),[4],0.14%
same,Relative UV Abundance* (%),[5],0.18%
CC[C@@]1(O)C(=O)OCc2c1cc1n(c2=O)Cc2c-1nc1cc(F)c(C)c3c1c2[C@@H](NC(=O)COCNC(=O)CN)CC3 [ProDXd],% of test compound in whole blood (initial 1 uM as 100%),"[1]; mouse, 0 hr, 1 μM",100.0%
same,% of test compound in whole blood (initial 1 uM as 100%),"[1]; mouse, 0.25 hr, 1 μM",63.9%
same,% of test compound in whole blood (initial 1 uM as 100%),"[1]; mouse, 0.5 hr, 1 μM",39.0%
same,% of test compound in whole blood (initial 1 uM as 100%),"[1]; mouse, 1 hr, 1 μM",30.7%
same,% of test compound in whole blood (initial 1 uM as 100%),"[1]; mouse, 2 hr, 1 μM",14.8%
same,% of test compound in whole blood (initial 1 uM as 100%),"[1]; mouse, 4 hr, 1 μM",2.7%
same,% of test compound in whole blood (initial 1 uM as 100%),"[1]; mouse, 8 hr, 1 μM",0.3%
same,% of test compound in whole blood (initial 1 uM as 100%),"[1]; mouse, 24 hr, 1 μM",0.0%
same,"Relative UV Abundance* (%), group total","[4]; human, 10 μM, pH 7.4",3.94%
same,BCRP efflux rate,BCRP,Lower
same,pGP efflux rate,pGP,Lower
